Experimental data from patent US10485785B2, “Method for producing fine powder and the fine powder produced by the same” (Moriroku Chemicals Company, Ltd., priority 2012, dated 2019).

What was measured:
Type in all cases: physicochemical
[1] = particle size distribution by laser diffraction (dry and wet method)
Procedure: The pulverized particles were dispersed by compressed air (0.4 MPa) and then, the dry particle size distribution was measured by a laser diffraction apparatus for measuring particle size distribution (LMS-30, SEISHIN ENTERPRISE CO., LTD.). On the other hand, the pulverized particles were dispersed in purified water by ultrasonic dispersion (30 seconds) and then, the wet particle size distribution was measured by a laser diffraction apparatus for measuring particle size distribution (SALD-2100, SHIMADZU CORPORATION). (3) Crystalline Properties The crystalline states of the bulk powder and the pulverized particles were measured by a X-ray powder diffraction apparatus (RAD-2VC, Rigaku Corporation) and a differential scanning calorimeters (DSC-60, SHIMADZU CORPORATION). […] As stated above, the dry method particle size distribution was measured by the laser diffraction scattering method (Dry method), while the wet method particle size distribution was measured by the laser diffraction method (Wet method). FIG. 32 represents the particle distribution of the bulk powder of phenytoin (OriB), the particle distribution of the phenytoin (Jet) pulverized by the dry method jet mill, and the particle distribution of the phenytoin (LN2) pulverized by the ultra low temperature medium grinding apparatus (LN2 bead mill) according to the present invention, wherein all the particle distributions were the results measured by the aforementioned dry method (Dry method). FIG. 33 represents the particle distribution of the bulk powder of phenytoin (OriB), the particle distribution of the phenytoin (Jet) pulverized by the dry method jet mill, and the particle distribution of the phenytoin (LN2) pulverized by the ultra low temperature medium grinding apparatus (LN2 bead mill) according to the present invention, wherein all the particle distribution were the results measured by the aforementioned wet method (Wet method). […]

[2] = dissolution test, pharmacopoeia second law (paddle method); details: 66.7 mg sample suspended in water with 0.1%(w/v) Tween80, 900 mL test liquid, 75 rpm
Procedure: In order to verify the degree of improvement of solubility of the concurrently pulverized materials, which was obtained by concurrently pulverizing the test compound (phenytoin) made by example 5 and the additive (Hypromellose-Acetate-Succinate (HPMCAS)), the dissolution test was carried out as follows. […] Then the suspension was put into a 900 mL test liquid (50 Mm phosphate buffer solution, pH6.8) and examined under the condition of 75 rpm in compliance with the pharmacopoeia second law (paddle method). A sample consisting of only a compound (phenytoin) to be pulverized was individually pulverized under the conditions shown in Example 5 to obtain a pulverized material, which was used to carry out the dissolution test as follows. A 66.7 mg sample of the pulverized material was suspended in the water, which contains a 0.1%(w/v) Tween80, to obtain a suspension. Then the suspension was put into the 900 mL test liquid and examined under the condition of 75 rpm in compliance with the pharmacopoeia second law (paddle method). […] Before the dissolution test of reference example 1 was carried out, the pulverized material prepared in reference example 1 was mixed with commercially available additives (lactose and L-HPC) in a vessel by hand. Then, the dissolution test was performed as for a mixture of the pulverized material and the additives.

[3] = crystalline properties by powder X-ray diffractometry and differential scanning calorimetry
Procedure: The pulverized particles were dispersed by compressed air (0.4 MPa) and then, the dry particle size distribution was measured by a laser diffraction apparatus for measuring particle size distribution (LMS-30, SEISHIN ENTERPRISE CO., LTD.). On the other hand, the pulverized particles were dispersed in purified water by ultrasonic dispersion (30 seconds) and then, the wet particle size distribution was measured by a laser diffraction apparatus for measuring particle size distribution (SALD-2100, SHIMADZU CORPORATION). (3) Crystalline Properties The crystalline states of the bulk powder and the pulverized particles were measured by a X-ray powder diffraction apparatus (RAD-2VC, Rigaku Corporation) and a differential scanning calorimeters (DSC-60, SHIMADZU CORPORATION). […] FIG. 34 represents the results of powder X-ray diffractometry (XRPD) of the original bulk of phenytoin (OriB), the phenytoin (Jet) pulverized by the dry method jet mill, and the phenytoin (LN2) pulverized by the ultra low temperature medium grinding apparatus (LN2 bead mill) according to the present invention, which were measured by a powder X-ray diffractometry device (RAD-2VC, Rigaku Corporation). […]

[4] = observation by scanning electron microscope (SEM); details: pulverized by the LN2 bead mill, SEM FIG. 2(B)
From the text: The exterior appearance of pulverized particles on which platinum is deposited was observed by a scanning electron microscope (JSM-6060, JEOL LTD.).

O=C1NC(=O)C(c2ccccc2)(c2ccccc2)N1 [Reference example 1, phenytoin]
particle diameter after individual pulverization ([1]; conditions of Example 5): ≤ 0.1 μm
solubility of the pulverized particles in dissolution test [2]: not improved, or rather became worse

O=C1NC(=O)C(c2ccccc2)(c2ccccc2)N1 [phenytoin (Jet), phenytoin]
degree of crystallinity ([3]; from ΔH value versus original bulk, DSC): 81%

O=C1NC(=O)C(c2ccccc2)(c2ccccc2)N1 [phenytoin]
dimension of the majority of the particles [4]: ≤ 1 μm

O=C1NC(=O)C(c2ccccc2)(c2ccccc2)N1 [phenytoin (LN2), phenytoin]
crystalline transformation / crystalline descent ([3]; XRPD and DSC, before and after pulverization): crystalline descent was not found
rate of submicron size particles relative to particles pulverized by the dry method [1]: three and a half times
percentage of the mass consisting of particles of 1 μm or below (rate of submicron size particles) ([1]; measured up to): up to 32%
